{"source": "patent US11147799B2", "about": "“Topical pharmaceutical composition containing phenytoin and a (co-) analgesic for the treatment of chronic pain” (Topical Innovations B.V., priority 2016, dated 2021)", "key": {"neuropathic pain [1]": {"tested_on": "neuropathic pain", "assay": "Earlier oral medication of the case patients (case histories)", "settings": "case history of the individual patient"}, "[2]": {"settings": "after oral administration; corresponding tissue; cited from earlier work"}, "neuropathic pain [3]": {"tested_on": "neuropathic pain", "settings": "21% for placebo; cited from earlier work"}}, "note": "Entries after “also recorded” stand apart in the source; their conditions may differ."}
{"compound": "CN(C)CCC=C1c2ccccc2CCc2ccccc21", "note": "[Amitriptyline]", "values": [{"measurement": "pain relieving effect of earlier oral medication (words)", "setting": "neuropathic pain [1]", "result": "did not have any pain relieving effect"}]}
{"compound": "O=C(O)Cc1ccccc1Nc1c(Cl)cccc1Cl", "note": "[diclofenac]", "values": [{"measurement": "Cmax of diclofenac in muscles", "setting": "[2]", "result": 1160, "unit": "ng/mL"}]}
{"compound": "NCC1(CC(=O)O)CCCCC1", "note": "[gabapentin]", "values": [{"measurement": "patients who achieved 50% or more pain relief", "setting": "neuropathic pain [3]", "result": "about 35%"}, {"measurement": "side effects of earlier oral medication", "setting": "neuropathic pain [1]", "result": "too much side effects"}]}
{"compound": "CC(C)C[C@H](CN)CC(=O)O", "note": "[pregabalin]", "values": [{"measurement": "pain relieving effect of earlier oral medication (words)", "setting": "neuropathic pain [1]", "result": "without sufficient pain reduction; also recorded: had a pain reducing effect"}, {"measurement": "side effects of earlier oral medication", "setting": "neuropathic pain [1]", "result": "anxiety and depression; also recorded: too much side effects"}, {"measurement": "pain relieving effect of earlier oral medication (words)", "setting": "neuropathic pain [1]; listed as Pregabalin", "result": "did not have any effect"}]}
{"compound": "COc1ccc(C(CN(C)C)C2(O)CCCCC2)cc1", "note": "(centres unmarked) [venlafaxine]", "values": [{"measurement": "side effects of earlier oral medication", "setting": "neuropathic pain [1]", "result": "induced nausea"}]}
